Measurements reported in ChEMBL document CHEMBL5321235, “Design, synthesis, and SAR study of novel flavone 1,2,4-oxadiazole derivatives with anti-inflammatory activities for the treatment of Parkinson's disease” (Eur J Med Chem, 2023).
Active and inactive are the calls of the source.

Assays:
BV-2 [1] = experiment: Inhibition of LPS-induced ROS production in mouse BV-2 cells at 5 uM pretreated for 18 hrs followed by LPS-stimulation and measured after 6 hrs by fluorescence microscopic analysis; assay type: functional, cell-based; conditions: time 24.0 hrs
Microglia [2] = experiment: (§1) Neuroprotective activity against MPTP-induced apoptosis in mouse microglia assessed as reduction in apoptotic cells in brain tissue at 15 mg/kg, ip administered with compound once daily for 2 weeks followed by MPTP addition on day 8 and measured after 2 weeks of compound addition by TUNEL staining based immunofluorescence analysis; assay type: functional, organism-based
BV-2 [3] = experiment: Antiinflammatory activity in mouse BV-2 cells assessed as inhibition of LPS-induced NO production at 5 uM pretreated for 18 hrs followed by LPS-induction and measured after 6 hrs relative to control; assay type: functional; design: scale not given: the % may be the effect or the level left; conditions: time 24 hrs
BV-2 [4] = experiment: Cytotoxicity against mouse BV-2 cells assessed as reduction in cell viability at 5 uM pretreated for 18 hrs followed by LPS-stimulation and measured after 6 hrs by MTT assay; assay type: toxicity, cell-based; conditions: bv-2, 24 h
BV-2 [5] = experiment: Cytotoxicity against mouse BV-2 cells assessed as reduction in cell viability at 10 uM pretreated for 18 hrs followed by LPS-stimulation and measured after 6 hrs by MTT assay; assay type: toxicity, cell-based; conditions: bv-2, 24 h
Microglia [6] = experiment: as §1, with “increase” for “reduction”, “Caspase3 expression” for “apoptotic cells”, “Western blot” for “TUNEL staining based immunofluorescence”; assay type: functional, organism-based
BV-2 [7] = experiment: Induction of apoptosis in LPS-induced mouse BV-2 cells assessed as increase in BAX expression at 5 to 10 uM pretreated for 18 hrs followed by LPS-stimulation and measured after 6 hrs by Western blot analysis; assay type: functional, cell-based; conditions: dose 5-10 µM, time 24.0 hrs
BV-2 [8] = experiment: Antiinflammatory activity in LPS-induced mouse BV-2 cells assessed as increase in CD206 mRNA expression at 5 to 10 uM pretreated for 18 hrs followed by LPS-stimulation and measured after 6 hrs by qRT-PCR analysis; assay type: functional, cell-based; conditions: dose 5-10 µM, time 24.0 hrs
BV-2 [9] = experiment: Inhibition of LPS-induced NF-kappaB nuclear translocation in mouse BV-2 cells at 5 to 10 uM pretreated for 18 hrs followed by LPS-stimulation and measured after 6 hrs by immunofluorescence analysis; assay type: cell-based; conditions: dose 5-10 µM, time 24.0 hrs
BV-2 [10] = experiment: Induction of apoptosis in LPS-induced mouse BV-2 cells assessed as increase in Caspase3 mRNA expression at 5 to 10 uM pretreated for 18 hrs followed by LPS-stimulation and measured after 6 hrs by qRT-PCR analysis; assay type: functional, cell-based; conditions: dose 5-10 µM, time 24.0 hrs
BV-2 [11] = experiment: Antiinflammatory activity in LPS-induced mouse BV-2 cells assessed as increase in IL-10 mRNA expression at 5 to 10 uM pretreated for 18 hrs followed by LPS-stimulation and measured after 6 hrs by qRT-PCR analysis; assay type: functional, cell-based; conditions: dose 5-10 µM, time 24.0 hrs
BV-2 [12] = experiment: Antiinflammatory activity in LPS-induced mouse BV-2 cells assessed as reduction in IL-1beta mRNA expression at 5 to 10 uM pretreated for 18 hrs followed by LPS-stimulation and measured after 6 hrs by qRT-PCR analysis; assay type: functional, cell-based; conditions: dose 5-10 µM, time 24.0 hrs
Mus musculus [13] = experiment: Antiinflammatory activity in C57BL/6J mouse assessed as inhibition of MPTP-induced ERK phosphorylation at 15 mg/kg, ip administered with compound once daily for 2 weeks followed by MPTP addition on day 8 and measured after 2 weeks of compound addition Western blot analysis; assay type: functional, organism-based
BV-2 [14] = experiment: Induction of apoptosis in LPS-induced mouse BV-2 cells assessed as increase in BAX mRNA expression at 5 to 10 uM pretreated for 18 hrs followed by LPS-stimulation and measured after 6 hrs by qRT-PCR analysis; assay type: functional, cell-based; conditions: dose 5-10 µM, time 24.0 hrs
Mus musculus [15] = experiment: Antiinflammatory activity in MPTP-induced C57BL/6J mouse assessed as increase in IL-10 expression at 15 mg/kg, ip administered with compound once daily for 2 weeks followed by MPTP addition on day 8 and measured after 2 weeks of compound addition Western blot analysis; assay type: functional, organism-based
BV-2 [16] = experiment: Antiinflammatory activity in LPS-induced mouse BV-2 cells assessed as increase in Arg-1 mRNA expression at 5 to 10 uM pretreated for 18 hrs followed by LPS-stimulation and measured after 6 hrs by qRT-PCR analysis; assay type: functional, cell-based; conditions: dose 5-10 µM, time 24.0 hrs
BV-2 [17] = experiment: Antiinflammatory activity in LPS-induced mouse BV-2 cells assessed as reduction in TNF-alpha mRNA expression at 5 to 10 uM pretreated for 18 hrs followed by LPS-stimulation and measured after 6 hrs by qRT-PCR analysis; assay type: functional, cell-based; conditions: dose 5-10 µM, time 24.0 hrs
BV-2 [18] = experiment: Induction of apoptosis in LPS-induced mouse BV-2 cells assessed as increase in Caspase3 expression at 5 to 10 uM pretreated for 18 hrs followed by LPS-stimulation and measured after 6 hrs by immunofluorescence analysis; assay type: functional, cell-based; conditions: dose 5-10 µM, time 24.0 hrs
Microglia [19] = experiment: (§2) Neuroprotective activity against MPTP-induced apoptosis in mouse microglia assessed as increase in BAX expression in brain tissue at 15 mg/kg, ip administered with compound once daily for 2 weeks followed by MPTP addition on day 8 and measured after 2 weeks of compound addition by Western blot analysis; assay type: functional, organism-based
Mus musculus [20] = experiment: Antiinflammatory activity in C57BL/6J mouse assessed as inhibition of MPTP-induced p38 phosphorylation at 15 mg/kg, ip administered with compound once daily for 2 weeks followed by MPTP addition on day 8 and measured after 2 weeks of compound addition Western blot analysis; assay type: functional, organism-based
[21] = molecular target: c-Jun N-terminal kinase (Mus musculus) (UniProt Q91Y86+Q9WTU6+Q61831); experiment: Inhibition of LPS-induced JNK phosphorylation in mouse BV-2 cells at 5 to 10 uM pretreated for 12 hrs followed by LPS-stimulation and measured after 6 hrs by Western blot analysis; assay type: cell-based; conditions: dose 5-10 µM, time 18.0 hrs
BV-2 [22] = experiment: Induction of apoptosis in LPS-induced mouse BV-2 cells assessed as increase in cleaved Caspase-3 expression at 5 to 10 uM pretreated for 18 hrs followed by LPS-stimulation and measured after 6 hrs by immunofluorescence analysis; assay type: functional, cell-based; conditions: dose 5-10 µM, time 24.0 hrs
Microglia [23] = experiment: as §2, with “Bcl2” for “BAX”; assay type: functional, organism-based
BV-2 [24] = experiment: Induction of apoptosis in LPS-induced mouse BV-2 cells assessed as increase in Bcl-2 expression at 5 to 10 uM pretreated for 18 hrs followed by LPS-stimulation and measured after 6 hrs by immunofluorescence analysis; assay type: functional, cell-based; conditions: dose 5-10 µM, time 24.0 hrs
BV-2 [25] = experiment: Induction of apoptosis in LPS-induced mouse BV-2 cells assessed as increase in BAX expression at 5 to 10 uM pretreated for 18 hrs followed by LPS-stimulation and measured after 6 hrs by immunofluorescence analysis; assay type: functional, cell-based; conditions: dose 5-10 µM, time 24.0 hrs
BV-2 [26] = experiment: Inhibition of LPS-induced ERK phosphorylation in mouse BV-2 cells at 5 to 10 uM pretreated for 12 hrs followed by LPS-stimulation and measured after 6 hrs by Western blot analysis; assay type: cell-based; conditions: dose 5-10 µM, time 18.0 hrs
BV-2 [27] = experiment: Induction of apoptosis in mouse LPS-induced BV-2 cells assessed as increase in Bcl-2 expression at 5 to 10 uM pretreated for 18 hrs followed by LPS-stimulation and measured after 6 hrs by Western blot analysis; assay type: functional, cell-based; conditions: dose 5-10 µM, time 24.0 hrs
Mus musculus [28] = experiment: Anti-parkinson activity in MPTP-induced C57BL/6J mouse model at 15 to 35 mg/kg, ip administered with compound once daily for 2 weeks followed by MPTP addition on day 8 and measured after 2 weeks of compound addition by rotarod test; assay type: functional, organism-based; conditions: dose 15-35 mg/kg
BV-2 [29] = experiment: Antiinflammatory activity in LPS-induced mouse BV-2 cells assessed as reduction in IL-6 mRNA expression at 5 to 10 uM pretreated for 18 hrs followed by LPS-stimulation and measured after 6 hrs by qRT-PCR analysis; assay type: functional, cell-based; conditions: dose 5-10 µM, time 24.0 hrs
Mus musculus [30] = experiment: Anti-parkinson activity in MPTP-induced C57BL/6J mouse model assessed as increase in locomotion at 15 to 35 mg/kg, ip administered with compound once daily for 2 weeks followed by MPTP addition on day 8 and measured after 2 weeks of compound addition by open field test; assay type: functional, organism-based; conditions: dose 15-35 mg/kg
BV-2 [31] = experiment: Antiinflammatory activity in LPS-induced mouse BV-2 cells assessed as reduction in CD86 mRNA expression at 5 to 10 uM pretreated for 18 hrs followed by LPS-stimulation and measured after 6 hrs by qRT-PCR analysis; assay type: functional, cell-based; conditions: dose 5-10 µM, time 24.0 hrs
BV-2 [32] = experiment: Induction of apoptosis in LPS-induced mouse BV-2 cells assessed as increase in Bcl-2 mRNA expression at 5 to 10 uM pretreated for 18 hrs followed by LPS-stimulation and measured after 6 hrs by qRT-PCR analysis; assay type: functional, cell-based; conditions: dose 5-10 µM, time 24.0 hrs
BV-2 [33] = experiment: Induction of apoptosis in LPS-induced mouse BV-2 cells assessed as increase in Caspase3 expression at 5 to 10 uM pretreated for 18 hrs followed by LPS-stimulation and measured after 6 hrs by Western blot analysis; assay type: functional, cell-based; conditions: dose 5-10 µM, time 24.0 hrs
[34] = molecular target: MAP kinase p38 (Mus musculus) (UniProt P47811+O08911+Q9WUI1+Q9Z1B7); experiment: Inhibition of LPS-induced p38 phosphorylation in mouse BV-2 cells at 5 to 10 uM pretreated for 12 hrs followed by LPS-stimulation and measured after 6 hrs by Western blot analysis; assay type: cell-based; conditions: dose 5-10 µM, time 18.0 hrs
BV-2 [35] = experiment: Induction of apoptosis in mouse LPS-induced BV-2 cells assessed as increase in cleaved Caspase-3 expression at 5 to 10 uM pretreated for 18 hrs followed by LPS-stimulation and measured after 6 hrs by Western blot analysis; assay type: functional, cell-based; conditions: dose 5-10 µM, time 24.0 hrs
BV-2 [36] = experiment: Inhibition of NF-kappaB activation in LPS-stimulated mouse BV-2 cells assessed as increase in IkappaBalpha expression at 5 to 10 uM pretreated for 18 hrs followed by LPS-stimulation and measured after 6 hrs by Western blot analysis; assay type: cell-based; conditions: dose 5-10 µM, time 24.0 hrs
Mus musculus [37] = experiment: Antiinflammatory activity in C57BL/6J mouse assessed as inhibition of MPTP-induced NF-kappaB phosphorylation at 15 mg/kg, ip administered with compound once daily for 2 weeks followed by MPTP addition on day 8 and measured after 2 weeks of compound addition Western blot analysis; assay type: functional, organism-based
Microglia [38] = experiment: Neuroprotective activity against MPTP-induced apoptosis in mouse microglia assessed as […] expression in brain tissue at 15 mg/kg, ip administered with compound once daily for 2 weeks followed by MPTP addition on day 8 and measured after 2 weeks of compound addition; assay type: functional, organism-based

Sequence of c-Jun N-terminal kinase (Mus musculus) (Q61831 whole entry, looked up): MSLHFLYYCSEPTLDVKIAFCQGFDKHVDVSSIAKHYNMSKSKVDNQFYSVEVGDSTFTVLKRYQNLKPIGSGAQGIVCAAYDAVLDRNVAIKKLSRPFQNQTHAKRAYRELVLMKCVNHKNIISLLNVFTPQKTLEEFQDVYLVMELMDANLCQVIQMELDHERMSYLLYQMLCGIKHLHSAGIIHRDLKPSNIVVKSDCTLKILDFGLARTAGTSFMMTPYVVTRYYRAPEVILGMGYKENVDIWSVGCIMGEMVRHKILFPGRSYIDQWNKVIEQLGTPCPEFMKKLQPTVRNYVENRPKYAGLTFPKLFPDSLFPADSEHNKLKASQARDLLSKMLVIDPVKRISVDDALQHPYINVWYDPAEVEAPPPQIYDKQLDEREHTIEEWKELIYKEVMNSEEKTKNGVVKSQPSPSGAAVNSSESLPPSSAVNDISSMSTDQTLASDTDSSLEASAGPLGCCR
Sequence of c-Jun N-terminal kinase (Mus musculus) (Q91Y86 whole entry, looked up): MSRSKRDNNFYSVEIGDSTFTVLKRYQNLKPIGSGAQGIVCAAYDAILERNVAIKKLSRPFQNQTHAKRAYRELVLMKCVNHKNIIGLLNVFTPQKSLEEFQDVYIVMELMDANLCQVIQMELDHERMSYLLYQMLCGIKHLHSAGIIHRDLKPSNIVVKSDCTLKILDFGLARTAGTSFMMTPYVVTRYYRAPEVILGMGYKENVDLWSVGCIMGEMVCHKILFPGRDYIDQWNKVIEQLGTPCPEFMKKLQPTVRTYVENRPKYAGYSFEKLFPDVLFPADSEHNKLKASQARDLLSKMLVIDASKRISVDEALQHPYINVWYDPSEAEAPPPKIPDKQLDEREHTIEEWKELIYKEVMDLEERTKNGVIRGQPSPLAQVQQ
Sequence of c-Jun N-terminal kinase (Mus musculus) (Q9WTU6 whole entry, looked up): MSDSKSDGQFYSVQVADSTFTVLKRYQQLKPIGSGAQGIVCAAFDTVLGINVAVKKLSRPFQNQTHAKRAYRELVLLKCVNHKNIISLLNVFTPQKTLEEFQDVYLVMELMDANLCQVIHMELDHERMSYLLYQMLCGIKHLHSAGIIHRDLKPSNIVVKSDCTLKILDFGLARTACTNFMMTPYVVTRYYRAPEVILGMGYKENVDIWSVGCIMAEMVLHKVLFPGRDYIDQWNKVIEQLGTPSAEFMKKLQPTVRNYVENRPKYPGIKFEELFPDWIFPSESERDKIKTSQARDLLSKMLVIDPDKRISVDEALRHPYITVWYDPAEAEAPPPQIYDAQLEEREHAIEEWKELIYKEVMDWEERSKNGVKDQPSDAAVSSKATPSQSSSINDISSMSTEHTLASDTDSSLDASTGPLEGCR

C#CCN[C@@H]1CCc2ccccc21
active: inhibition (BV-2 [1]) | Activity (Microglia [2])

Cc1c(-c2ccccc2)oc2c(-c3nc(-c4ccccc4)no3)cccc2c1=O
22.4%: Activity (BV-2 [3])
active: inhibition (BV-2 [1])

Cc1ccccc1-c1noc(-c2cccc3c(=O)c(C)c(-c4ccccc4)oc23)n1
active: inhibition (BV-2 [1])
22.4%: Activity (BV-2 [3])

Cc1c(-c2ccccc2)oc2c(-c3nc(-c4ccccc4F)no3)cccc2c1=O
41.6%: Activity (BV-2 [3])
active: inhibition (BV-2 [1])

COc1ccc(-c2noc(-c3cccc4c(=O)c(C)c(-c5ccccc5)oc34)n2)cc1
22.4%: Activity (BV-2 [3])
active: inhibition (BV-2 [1])

CCc1ccc(-c2noc(-c3cccc4c(=O)c(C)c(-c5ccccc5)oc34)n2)cc1
41.6%: Activity (BV-2 [3])
active: inhibition (BV-2 [1])

Cc1c(-c2ccccc2)oc2c(-c3nc(-c4ccc(F)cc4)no3)cccc2c1=O
41.6%: Activity (BV-2 [3])
Non-Toxic: Activity (BV-2 [4]) | Activity (BV-2 [5])
active: inhibition (BV-2 [1])

Cc1cccc(-c2noc(-c3cccc4c(=O)c(C)c(-c5ccccc5)oc34)n2)c1
active: Activity (Microglia [6]) | Activity (BV-2 [7]) | Activity (BV-2 [8]) | inhibition (BV-2 [9]) | Activity (BV-2 [10]) | Activity (BV-2 [11]) | Activity (BV-2 [12]) | Activity (Mus musculus [13]) | inhibition (BV-2 [1]) | Activity (BV-2 [14]) | Activity (Mus musculus [15]) | Activity (BV-2 [16]) | Activity (BV-2 [17]) | Activity (BV-2 [18]) | Activity (Microglia [19]) | Activity (Mus musculus [20]) | Activity (Microglia [2]) | inhibition [21] | Activity (BV-2 [22]) | Activity (Microglia [23]) | Activity (BV-2 [24]) | Activity (BV-2 [25]) | inhibition (BV-2 [26]) | Activity (BV-2 [27]) | Activity (Mus musculus [28]) | Activity (BV-2 [29]) | Activity (Mus musculus [30]) | Activity (BV-2 [31]) | Activity (BV-2 [32]) | Activity (BV-2 [33]) | inhibition [34] | Activity (BV-2 [35]) | inhibition (BV-2 [36]) | Activity (Mus musculus [37]) | Activity (Microglia [38])
64.2%: Activity (BV-2 [3])
Non-Toxic: Activity (BV-2 [4]) | Activity (BV-2 [5])

COc1ccc(-c2coc3cc(O)cc(O)c3c2=O)cc1
active: inhibition (BV-2 [1])
